Results reported in patent US20040087539A1, “Method of treating conditions related to platelet activity” (priority 2003, published 2004).

Columns and labels:
[1] = system: platelets; assay: Low-dose α-thrombin-induced aggregation of washed platelets; type: cell-based, human
Experimental: Fresh blood from healthy volunteers was anticoagulated with 1/7 volume of ACD (2.5% trisodium citrate, 2% dextrose and 1.5% citric acid). Platelets were washed with CGS buffer (sodium chloride 0.12 M, trisodium citrate 0.0129 M and d-glucose 0.03 M, pH 6.5), resuspended in modified Tyrode's solution and allowed to incubate at 22° C. for 1 hours as previously described. In experiments using platelet-rich plasma (PRP), 1/10 volume of 3.8% trisodium citrate was used as anticoagulant. Platelet aggregation was measured using a turbidometric platelet aggregometer (Chrono-Log) at 37° C. vWF-dependent platelet aggregation was induced by addition of ristocetin or botrocetin to PRP. To differentiate CPIb-IX-mediated platelet agglutination from the second wave of integrin-dependent platelet aggregation, final concentrations of ristocetin were adjusted in each experiment to achieve a two-wave curve of aggregation. Washed platelets were used in platelet aggregation induced by a-thrombin (Enzyme Research Laboratories). To examine the effects of PKG, 100 μM of membrane permeable cGMP analogs, 8-bromo-cGMP or 8-dibutyl-cGMP (Calbiochem), or 1 μM sildenafil citrate (Pfizer) and added simultaneously with subthreshold concentrations of agonists. PKG inhibitors KT5823 (2 pM) and Rp-8PCPT-cGMP (0.2 mM) were preincubated with platelets at 37° C. for 5 minutes before addition of agonists.
In FIG. 5A, washed platelets were preincubated with 40 pg/mi anti-GPIba monoclonal antibody SZ2, integrin inhibitor RGDS, or inhibitors of PKG, KT5823 (2 μM) or Rp-8pCPT-cGMP (0.2 mM) (Calbiochem), for 5 min. Platelets also were preincubated with DMSO (vehicle for KT5823), KT5720 or buffer (Control) as controls. α-Thrombin (0.05 units/mi) then was added to induce platelet aggregation. Nonspecific JgG and RGES peptides also were examined as additional controls, but had no effect (not shown). In FIG. 5B, a subthreshold dose of thrombin was added to platelets immediately followed by addition of PKG activator 8-bromo-cGMP or buffer (Control). Shown in the figure are the representative results of at least three experiments.
In FIG. 6A, increasing concentrations of sildenafil or control 0.15 M NaCl solution were added to platelet-rich plasma followed by a subthreshold concentration of ristocetin. Platelet aggregation was recorded using a platelet aggregometer. In FIG. 6B, sildenafil or control buffer was added to washed platelets followed by addition of subthreshold doses of thrombin to induce platelet aggregation. It was noted that platelet aggregation occurs in the presence of sildenafil. The figure includes the representative results of at least three experiments.
In FIG. 7A, PRP was preincubated with 0.1 mM 8-bromo-cGMP for increasing lengths of time at 37° C. as indicated. The vWF modulator, ristocetin (1.25 mg/ml), then was added to induce platelet aggregation in a turbidometric platelet aggregometer. In FIG. 7B, PRP was preincubated with a high concentration of 8-bromo-cGMP (1 mM) for 5 minutes. Ristocetin then was added to induce platelet aggregation. In FIGS. 7C and 7D, washed platelets in modified Tyrode's solution were preincubated with 1 mM 8-bromo-cGMP (C), or various concentrations of 8-pCPT-cGMP (D) at 37° C. for 5 minutes. Thrombin (0.05 u/ml) then was added to induce platelet aggregation.

[2] = system: CHO cells expressing human platelet receptors; assay: Cell adhesion to immobilized vWF under flow; type: cell-based, Chinese Hamster; details: FIG. 2C; sildenafil 5 μM, RGDS 4 mM; 8-bromo-cGMP not shown
Experimental: CHO cells expressing human platelet receptors were resuspended in modified Tyrode's buffer, pH 7.4, containing 1 mg/mi of bovine serum albumin (BSA) (see Ref. 46), and final cell count was 5×10^5/ml. […] Purified human vWF (10 μg/ml in 0.1 M NaHCO3, pH 8.3) was added to glass microcapillary tubes (inner diameter of 1.33 mm and a length of 7.2 cm), and incubated at 4° C. for 20 h. The vWF-coated microcapillary tubes then were incubated with 5% BSA. After washing, the cell suspension was aspirated through the tube by a syringe pump (Harvard Apparatus Inc.) at desired shear rates for 1.2 minutes and washed with modified Tyrode's buffer for additional 10 minutes at the same shear rates to remove transiently adherent cells. The experiments were continuously recorded on videotape using a video cassette recorder (model 9500, Sony). The number of stably adherent cell on immobilized vWF was counted on images obtained at 20 randomly selected positions in the vWF-coated tubes.
In FIGS. 2A and B, vWF-coated capillary tubes were perfused with equivalent numbers (5×10^5/ml) of CHO cells expressing recombinant GPLb-JX alone (1b9), integrin αIIbβ3 alone (2b3a), both GPIb-IX and integrin αIIbβ3 (123) or expressing GPJb-JX, integrin α^IIbβ3 and PKG Ia (123PKG) at a shear rates of 800 s^−1 (A) or 1500 s^−1 (B) for 1.2 minutes, and then perfused with the modified Tyrodes buffer for 10 minutes at the same shear rates to wash out transient adherent cells. The expenments were recorded in real time. Cells stably adherent to vWF-coated capillary tubes at 20 randomly selected locations were counted.
In FIG. 2C, vector-transfected 123 cells (123) or 123PKG cells also was perfused into vWF-coated glass capillary tubes as described in FIG. 2A in the absence or presence (+RGDS) of an integrin inhibitor RGDS peptide (4 mM) and in the absence (Control) or presence of cGMP-enhancing drug, sildenafil (5 μM). […] The experiments were repeated at least three times.

Question: How did the “GPIb-IX-dependent platelet activation, agent added simultaneously with thrombin” value ([1]; 8-bromo-cGMP 100 μM, FIG. 5) turn out when `Nc1nc2c(nc(Br)n2[C@@H]2O[C@@H]3COP(=O)(O)O[C@H]3[C@H]2O)c(=O)[nH]1` [8-bromo-cGMP] was run?
Answer: promoted

Question: What about the “platelet aggregation together with a subthreshold concentration of thrombin” value ([1]; washed platelets, thrombin 0.02 units/ml, FIGS. 5B, 6B) of the same compound?
Answer: induced platelet aggregation

Question: And the “stable adhesion of PKG-expressing 123 cells (123PKG) to vWF under flow” value [2]?
Answer: enhanced
